Where a SMILES comes first, the peptide text is derived from it. [ ]: non-standard residue; d: D form. dPhe(4-Cl) = N[C@H](Cc1ccc(Cl)cc1)C(=O)O; d2Nal = N[C@H](Cc1ccc2ccccc2c1)C(=O)O; dCit = NC(=O)NCCC[C@@H](N)C(=O)O; d3Pal = N[C@H](Cc1cccnc1)C(=O)O
How the values were obtained:
bfGnRHR-3 [1] = test: Inhibition of GnRH-2-induced IP production, GH3 cells expressing bfGnRHR-3; type: cell-based, bullfrog
Experimental: (§1) GH3 cell lines were obtained from the Cell Line Bank at the Cancer Research Center, Seoul National University College of Medicine, located in Seoul, Republic of Korea. The GH3 cell lines were infected with retroviruses comprising genes encoding bfGnRHR-1, bfGnRHR-2, and bfGnRHR-3 which are bullfrog GnRH receptors, and rat GnRHR, and cell lines expressing each of these receptors were obtained. The GH3 cells expressing bfGnRHR-1, bfGnRHR-2, bfGnRHR-3, and rat GnRHR were cultured on 12-well plates. After 24 hours, the cells were cultured again for 24 hours in a media containing no inositol, to which H^3-myoinositol was added. The resultant cells were washed with buffer A (140 mM NaCl, 20 mM HEPES, 4 mM KCl, 8 mM D-Glucose, 1 mM MgCl2, 1 mM CaCl2, 1 mg/ml BSA) and then cultured in buffer A containing 10 mM LiCl at 37°C. for 30 minutes. Thereafter, they were treated with GnRH having a suitable concentration, cultured at 37° C. for another 30 minutes, and then the media was eliminated. The cells were treated with 10 mM of ice-cold formic acid to terminate the reaction, and the cell extracts were mixed with Dowex anionic exchange resins. These resins were washed with distilled water, IP was extracted with 1 M ammonium formate/0.1 M formic acid, and cpm (count per minute) was determined.

rat GnRHR [2] = molecular target: T1, rat GnRHR (Rattus norvegicus, UniProt P30969); test: Ligand-receptor binding assay, I125-GnRH-2 competition, membranes of GH3 cells expressing rat GnRHR; details: log of IC50 (negative values); competition with I125-GnRH-2, 4° C., 16 hours; read-out: Binding affinity (log IC50 value) (converted)
T1 construct: expressed in transfected cells; host or cells: GH3 cells, retrovirus-mediated infection
T1 sequence (P30969 1-327): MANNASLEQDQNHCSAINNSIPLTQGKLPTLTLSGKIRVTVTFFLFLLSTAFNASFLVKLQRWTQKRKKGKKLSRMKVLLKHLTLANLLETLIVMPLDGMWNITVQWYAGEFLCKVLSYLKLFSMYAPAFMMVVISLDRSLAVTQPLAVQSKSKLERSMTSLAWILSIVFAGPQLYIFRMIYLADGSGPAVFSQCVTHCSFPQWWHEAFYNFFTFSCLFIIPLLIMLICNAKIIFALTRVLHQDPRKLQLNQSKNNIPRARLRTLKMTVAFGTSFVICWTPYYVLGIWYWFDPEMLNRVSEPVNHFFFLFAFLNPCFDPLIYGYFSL
Experimental: To determine the binding affinity between GnRH and GnRH receptors, GnRH-2 was radiolabeled with I^125. […] After 48 hours, the cells were homogenized to obtain cellular membranes, which were then dissolved in binding buffer (40 mM Tris, pH 7.4, 2 mM MgCl2). 20 μg of membrane proteins were reacted with I^125-GnRH-2 at 4° C. for 16 hours. […] After the reaction was completed, 1^125-GnRH-2 bound to the receptors was filtered using a Brandel harvester, and cpm was measured using a γ-counter.

rat GnRHR [3] = molecular target: T1, rat GnRHR; test: Inhibition of GnRH-induced IP production, GH3 cells expressing rat GnRHR; type: cell-based; details: rat GnRH receptors
Experimental: as §1

Primate GnRH-2 receptor = test: Inhibition of GnRH-2-induced c-fos-luc luciferase activity, cells expressing Primate GnRH-2 receptor; type: cell-based, Primates
Experimental: Complimentary DNA (cDNA) for a Primate GnRH-2 receptor was obtained from a CV-1 cell genome. […] Plasmids having Primate GnRH-2 receptors where transfected into CV-1 cells. To assay the activity of the receptor, c-fos-luc where a luciferase gene is fused with a c-fos promoter was co-transfected as a probe gene. After 48 hours from transfection, the cells were treated with GnRH-2 agonists and then the activity of luciferase was assayed (Seong et al., Endocrinology vol 144 2003, 454-466). In the same manner as in 2-3 above, Primate GnRH-2 receptors were co-transfected along with c-fos-luc reporter genes, and after 48 hours, GnRH-2 and GnRH-2 antagonists were treated thereinto at the same time and then the effect of GnRH-2 antagonists was observed. […] Log IC50 value by antagonists is an average value of experiments that were conducted independently three times. ND stands for “not detected” which means that there are no inhibitory functions.

bfGnRHR-3 [4] = test: Ligand-receptor binding assay, I125-GnRH-2 competition, membranes of GH3 cells expressing bfGnRHR-3; set-up: species or system bullfrog; details: log of IC50 (negative values); competition with I125-GnRH-2, 4° C., 16 hours
Experimental: To determine the binding affinity between GnRH and GnRH receptors, GnRH-2 was radiolabeled with I^125. The GH3 cells expressing bfGnRHR-1, bfGnRHR-2, bfGnRHR-3, and rat GnRHR constructed in Example 2-3 above were cultured on 100-mm dishes. After 48 hours, the cells were homogenized to obtain cellular membranes, which were then dissolved in binding buffer (40 mM Tris, pH 7.4, 2 mM MgCl2). 20 μg of membrane proteins were reacted with I^125-GnRH-2 at 4° C. for 16 hours. […] After the reaction was completed, 1^125-GnRH-2 bound to the receptors was filtered using a Brandel harvester, and cpm was measured using a γ-counter.
The GH3 cells expressing bfGnRHR-3 obtained from Example 6-1 above were treated with l^125GnRH-2 and GnRH-2 agonists and antagonists at various concentrations to determine the binding affinity of GnRH-2 agonists and antagonists toward the receptors.

bfGnRHR-2 = test: Inhibition of GnRH-2-induced IP production, GH3 cells expressing bfGnRHR-2; type: cell-based, bullfrog
Experimental: as §1

[5] = log of IC50 (negative values), half-maximal inhibition of IP production induced by GnRH-2 (1 nM, 10 nM elsewhere in the source)
[6] = reduction of IP production induced by 1 nM GnRH-2

Structure (SMILES): CC(=O)N[C@H](Cc1ccc2ccccc2c1)C(=O)N[C@H](Cc1ccc(Cl)cc1)C(=O)N[C@H](Cc1cccnc1)C(=O)N[C@@H](CO)C(=O)N[C@@H](Cc1ccc(O)cc1)C(=O)N[C@H](CCCNC(N)=O)C(=O)N[C@@H](Cc1c[nH]c2ccccc12)C(=O)N[C@@H](Cc1ccc(O)cc1)C(=O)N1CCC[C@H]1C(=O)N[C@H](C)C(N)=O [Trptorelix-1, Ac-D2Nal-(4Cl)D-Phe-D-3Pal-Ser-Tyr-D-Cit-Trp-Tyr-Pro-DAlaNH2] (Ac-[d2Nal][dPhe(4-Cl)][d3Pal]SY[dCit]WYP[dA]-NH2)
- Log IC50 (bfGnRHR-3 [1]; [5]): −8.49 ± 0.11
- fold more sensitive than Cetrorelix (bfGnRHR-3 [1]; [6]): about 1000 fold
- IP production by antagonist alone (bfGnRHR-3 [1]; without GnRH-2): production of IP was not observed
- IC50 (rat GnRHR [2]): 1.78 pM
- fold lower effect than Cetrorelix (rat GnRHR [3]): ~60 fold
- effect on luciferase activity induced by GnRH-2 (Primate GnRH-2 receptor; GnRH-2 and antagonist treated at the same time): reduced in a concentration-dependent manner
- Log IC50 (Primate GnRH-2 receptor; log of IC50 (negative values), reporter c-fos-luc, GnRH-2-induced luciferase, average of three experiments, ND = not detected, no inhibitory functions): −5.74 ± 0.10
- Binding affinity (log IC50 value) (bfGnRHR-3 [4]): −11.73 ± 0.19
- Log IC50 (bfGnRHR-2; [5]): −8.10 ± 0.08
- fold more sensitive than Cetrorelix (bfGnRHR-2; [6]): 100 fold
- IP production by antagonist alone (bfGnRHR-2; without GnRH-2): production of IP was not observed
